In patent US8912120B2, “Herbicidal compositions comprising 4-amino-3-chloro-5-fluoro-6-(4-chloro-2-fluoro-3-methoxyphenyl) pyridine-2-carboxylic acid or a derivative thereof and synthetic auxin herbicides” (Dow AgroSciences, LLC., priority 2012, dated 2014):
Read-outs that look alike come from different tables or passages of the source.

Columns and labels:
ECHCG [1] = assay: Example I: postemergence foliar-applied herbicidal mixtures, direct seeded rice, ECHCG
LEFCH [2] = assay: Example I: postemergence foliar-applied herbicidal mixtures, direct seeded rice, LEFCH; type: in vivo, Leptochloa chinensis (Chinese sprangletop)
Description: (§2) The soil matrix was contained in plastic pots with a volume of 1 quart and a surface area of 83.6 square centimeters (cm^2). […] The plants were grown for 8-22 days in a greenhouse with an approximate 14 h photoperiod which was maintained at about 29° C. during the day and 26° C. during the night. Nutrients (Peters Excel® 15-5-15 5-Ca 2-Mg and iron chelate) were applied in the irrigation solution as needed and water was added on a regular basis. Supplemental lighting was provided with overhead metal halide 1000-Watt lamps as necessary. The plants were employed for testing when they reached the first through fourth true leaf stage.
(§3) Treatments consisted of the acid or esters of 4-amino-3-chloro-5-fluoro-6-(4-chloro-2-fluoro-3-methoxy-phenyl)pyridine-2-carboxylic acid (Compound A), each formulated as an SC (suspension concentrate), and various herbicidal components alone and in combination. Forms of compound A were applied on an acid equivalent basis.
(§4) For treatments comprised of formulated compounds, measured amounts of compounds were placed individually in 25 mL glass vials and diluted in a volume of 1.25% (v/v) Agri-Dex® crop oil concentrated to obtain 12× stock solutions. […] Application solutions were prepared by adding an appropriate amount of each stock solution (e.g., 1 mL) and diluted to the appropriate final concentrations with the addition of 10 mL of an aqueous mixture of 1.25% (v/v) crop oil concentrate so that the final spray solutions contained 1.25+/−0.05% (v/v) crop oil concentrate.
(§5) All stock solutions and applications solutions were visually inspected for compound compatibility prior to application. Spray solutions were applied to the plant material with an overhead Mandel track sprayer equipped with a 8002E nozzles calibrated to deliver 187 L/ha over an application area of 0.503 m^2 at a spray height of 18 to 20 inches (46 to 50 cm) above average plant canopy height. Control plants were sprayed in the same manner with the solvent blank.
(§6) The treated plants and control plants were placed in a greenhouse as described above and watered by sub-irrigation to prevent wash-off of the test compounds. After approximately 3 weeks, the condition of the test plants as compared with that of the untreated plants was determined visually and scored on a scale of 0 to 100 percent where 0 corresponds to no injury or growth inhibition and 100 corresponds to complete kill.
(§7) Colby's equation was used to determine the herbicidal effects expected from the mixtures (Colby, S. R. 1967. Calculation of the synergistic and antagonistic response of herbicide combinations. Weeds 15:20-22).
(§8) The following equation was used to calculate the expected activity of mixtures containing two active ingredients, A and B: Expected=A+B−(A×B/100)
(§9) A=observed efficacy of active ingredient A at the same concentration as used in the mixture.
(§10) B=observed efficacy of active ingredient B at the same concentration as used in the mixture.

IPOHE = assay: Example I: postemergence foliar-applied herbicidal mixtures, direct seeded rice, IPOHE; type: in vivo, Ipomoea hederacea (ivyleaf morningglory)
Description: as §2, §3, §4, §5, §6, §7, §8, §9, §10

ECHCG [3] = assay: Example II: in-water applied herbicidal mixtures, transplanted paddy rice, ECHCG; type: in vivo, Echinochloa crus-galli (barnyardgrass); conditions: for Visual Weed Control (%) - 21 DAA ECHCG Obs / Visual Weed Control (%) - 22 DAA ECHCG Obs: in-water application
Procedure, shortened: (§1)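 Flooded-mud greenhouse setup with rice transplanted at the 2–3 leaf stage, 4 days before herbicides were added to the water layer by pipette; solvent content matched across all pots.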

LEFCH [4] = assay: Example II: in-water applied herbicidal mixtures, transplanted paddy rice, LEFCH; type: in vivo, Leptochloa chinensis (Chinese sprangletop); conditions: for Visual Weed Control (%) - 21 DAA LEFCH Obs / Visual Weed Control (%) - 25 DAA LEFCH Obs: in-water application
Procedure, shortened: as §1

SCPMA = assay: Example II: in-water applied herbicidal mixtures, transplanted paddy rice, SCPMA; type: in vivo
Procedure, shortened: as §1

DIGSA = assay: Example I: postemergence foliar-applied herbicidal mixtures, direct seeded rice, DIGSA
Description: as §2, §3, §4, §5, §6, §7, §8, §9, §10

CYPRO = assay: Example II: in-water applied herbicidal mixtures, weed control in transplanted paddy rice (greenhouse), CYPRO; type: in vivo, Cyperus rotundus (purple nutsedge); conditions: for Visual Weed Control (%) - 21 DAA CYPRO Obs / Visual Weed Control (%) - 22 DAA CYPRO Obs: in-water application; for Visual Weed Control (%) Obs: 20 DAA
Procedure, shortened: as §1

BRSNN = assay: Example IV: postemergence foliar-applied herbicidal mixtures, cereal crops, BRSNN; type: in vivo, Brassica napus (volunteer canola); conditions: 8.75 gai/ha
Procedure, shortened: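 Greenhouse plants were grown 7–36 days in potting mix (pH 6.0–6.8) under ~14 h photoperiod at about 18 °C day/17 °C night. Postemergence foliar sprays (12 mL) contained the second cereal herbicide with experimental compound as two- and three-way mixtures.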

ECHCO = assay: Example I: postemergence foliar-applied herbicidal mixtures, direct seeded rice, ECHCO; conditions: for Visual Weed Control (%) - 21 DAA ECHCO Obs: Fluroxypyr MHE 0 gae/ha
Description: as §2, §3, §4, §5, §6, §7, §8, §9, §10

ECHOR = assay: Example II: in-water applied herbicidal mixtures, transplanted paddy rice, ECHOR; type: in vivo, Echinochloa oryzoides (early watergrass); conditions: for Visual Weed Control (%) - 20 DAA ECHOR Obs / Visual Weed Control (%) - 22 DAA ECHOR Obs: in-water application
Procedure, shortened: as §1

CYPIR = assay: Example I: postemergence foliar-applied herbicidal mixtures, direct seeded rice, CYPIR; type: in vivo, Cyperus iria (rice flatsedge)
Description: as §2, §3, §4, §5, §6, §7, §8, §9, §10

COc1c(Cl)ccc(-c2nc(C(=O)OCc3ccccc3)c(Cl)c(N)c2F)c1F [Compound A Benzyl Ester, benzyl ester of 4-amino-3-chloro-5-fluoro-6-(4-chloro-2-fluoro-3-methoxy-phenyl)pyridine-2-carboxylic acid]
Visual Weed Control (%) - 21 DAA ECHCG Obs (ECHCG [1]; 4.38 gae/ha): 48% | Visual Weed Control (%) - 23 DAA ECHCG Obs (ECHCG [1]; 4.38 gae/ha): 40% | Visual Weed Control (%) - 21 DAA ECHCG Obs (ECHCG [1]; 8.75 gae/ha): 55% | Visual Weed Control (%) - 23 DAA ECHCG Obs (ECHCG [1]; 8.75 gae/ha): 55% | Visual Weed Control (%) - 21 DAA ECHCG Obs (ECHCG [1]; Compound A Benzyl Ester rate printed '—' (second line), Fluroxypyr MHE 0 gae/ha): 85% | Visual Weed Control (%) - 21 DAA ECHCG Obs (ECHCG [1]; Compound A Benzyl Ester rate printed '—', Fluroxypyr MHE 0 gae/ha): 10% | Visual Weed Control (%) - 20 DAA LEFCH Obs (LEFCH [2]; 4.38 gae/ha): 0% | Visual Weed Control (%) - 20 DAA LEFCH Obs (LEFCH [2]; 8.75 gae/ha): 20% | Visual Weed Control (%) - 19 DAA LEFCH Obs (LEFCH [2]; 16 gae/ha): 58% | Visual Weed Control (%) - 20 DAA IPOHE Obs (IPOHE; 4.38 gae/ha): 0% | Visual Weed Control (%) - 20 DAA IPOHE Obs (IPOHE; 8.75 gae/ha): 10% | Visual Weed Control (%) - 20 DAA IPOHE Obs (IPOHE; 17.5 gae/ha): 25% | Visual Weed Control (%) - 21 DAA ECHCG Obs (ECHCG [3]; 4.38 gae/ha): 0% | Visual Weed Control (%) - 22 DAA ECHCG Obs (ECHCG [3]; 4.38 gae/ha): 30% | Visual Weed Control (%) - 21 DAA ECHCG Obs (ECHCG [3]; 8.75 gae/ha): 0% | Visual Weed Control (%) - 22 DAA ECHCG Obs (ECHCG [3]; 8.75 gae/ha): 45% | Visual Weed Control (%) - 21 DAA ECHCG Obs (ECHCG [3]; 17.5 gae/ha): 25% | Visual Weed Control (%) Obs (ECHCG [3]; 19 DAA, 8 gae/ha): 35% | Visual Weed Control (%) Obs (ECHCG [3]; 19 DAA, 16 gae/ha): 85% | Visual Weed Control (%) Obs (ECHCG [3]; 20 DAA, 4.38 gae/ha): 15% | Visual Weed Control (%) Obs (ECHCG [3]; 20 DAA, 8.75 gae/ha): 20% | Visual Weed Control (%) Obs (ECHCG [3]; 20 DAA, 17.5 gae/ha): 40% | Visual Weed Control (%) Obs (ECHCG [3]; 22 DAA, 4.38 gae/ha): 30% | Visual Weed Control (%) Obs (ECHCG [3]; 22 DAA, 8.75 gae/ha): 45% | Visual Weed Control (%) Obs (ECHCG [3]; 22 DAA, 17.5 gae/ha): 90% | Visual Weed Control (%) - 21 DAA LEFCH Obs (LEFCH [4]; 4.38 gae/ha): 0% | Visual Weed Control (%) - 21 DAA LEFCH Obs (LEFCH [4]; 8.75 gae/ha): 0% | Visual Weed Control (%) - 25 DAA LEFCH Obs (LEFCH [4]; 8.75 gae/ha): 50% | Visual Weed Control (%) - 21 DAA LEFCH Obs (LEFCH [4]; 17.5 gae/ha): 0% | Visual Weed Control (%) - 25 DAA LEFCH Obs (LEFCH [4]; 17.5 gae/ha): 90% | Visual Weed Control (%) Obs (LEFCH [4]; 19 DAA, 35 gae/ha): 80% | Visual Injury (%) Obs (LEFCH [4]; 25 DAA, 8.75 gae/ha): 50% | Visual Weed Control (%) Obs (LEFCH [4]; 25 DAA, 8.75 gae/ha): 50% | Visual Injury (%) Obs (LEFCH [4]; 25 DAA, 17.5 gae/ha): 90% | Visual Weed Control (%) Obs (LEFCH [4]; 25 DAA, 17.5 gae/ha): 90% | Visual Weed Control (%) Obs (SCPMA; 20 DAA, 35 gae/ha): 0% | Visual Weed Control (%) Obs (SCPMA; 20 DAA, 70 gae/ha): 0% | Visual Weed Control (%) Obs (SCPMA; 21 DAA, 4.38 gae/ha): 0% | Visual Weed Control (%) Obs (SCPMA; 21 DAA, 8.75 gae/ha): 0% | Visual Weed Control (%) Obs (SCPMA; 21 DAA, 17.5 gae/ha): 0% | Visual Weed Control (%) Obs (SCPMA; 22 DAA, 4.38 gae/ha): 0% | Visual Weed Control (%) Obs (SCPMA; 22 DAA, 8.75 gae/ha): 0% | Visual Weed Control (%) Obs (SCPMA; 22 DAA, 17.5 gae/ha): 0% | Visual Weed Control (%) - 23 DAA DIGSA Obs (DIGSA; 4.38 gae/ha): 0% | Visual Weed Control (%) - 23 DAA DIGSA Obs (DIGSA; 8.75 gae/ha): 0% | Visual Weed Control (%) - 23 DAA DIGSA Obs (DIGSA; 17.5 gae/ha): 15% | Visual Weed Control (%) - 20 DAA DIGSA Obs (DIGSA; 35 gae/ha): 38% | Visual Weed Control (%) - 21 DAA CYPRO Obs (CYPRO; 4.38 gae/ha): 0% | Visual Weed Control (%) - 22 DAA CYPRO Obs (CYPRO; 4.38 gae/ha): 90% | Visual Weed Control (%) - 21 DAA CYPRO Obs (CYPRO; 8.75 gae/ha): 0% | Visual Weed Control (%) - 22 DAA CYPRO Obs (CYPRO; 8.75 gae/ha): 70% | Visual Weed Control (%) Obs (CYPRO; 4.38 gae/ha): 0% | Visual Weed Control (%) Obs (CYPRO; 8.75 gae/ha): 0% | Weed Control Ob (BRSNN; after 20-22 days): 23% | BRSNN Ob (observed value) (BRSNN; alone, foliar, 20-22 days): 23% | Visual Weed Control (%) - 20 DAA ECHCO Obs (ECHCO; 4.38 gae/ha): 50% | Visual Weed Control (%) - 23 DAA ECHCO Obs (ECHCO; 4.38 gae/ha): 40% | Visual Weed Control (%) - 20 DAA ECHCO Obs (ECHCO; 8.75 gae/ha): 75% | Visual Weed Control (%) - 23 DAA ECHCO Obs (ECHCO; 8.75 gae/ha): 40% | Visual Weed Control (%) - 23 DAA ECHCO Obs (ECHCO; 17.5 gae/ha): 75% | Visual Weed Control (%) - 21 DAA ECHCO Obs (ECHCO; Compound A Benzyl Ester rate printed '—' (second line)): 75% | Visual Weed Control (%) - 21 DAA ECHCO Obs (ECHCO; Compound A Benzyl Ester rate printed '—'): 70% | Visual Weed Control (%) - 20 DAA ECHOR Obs (ECHOR; 4.38 gae/ha): 10% | Visual Weed Control (%) - 20 DAA ECHOR Obs (ECHOR; 8.75 gae/ha): 20% | Visual Weed Control (%) - 22 DAA ECHOR Obs (ECHOR; 8.75 gae/ha): 25% | Visual Weed Control (%) - 20 DAA ECHOR Obs (ECHOR; 17.5 gae/ha): 50% | Visual Weed Control (%) - 22 DAA ECHOR Obs (ECHOR; 17.5 gae/ha): 45% | pest or weed control at 8 g/ha (ECHOR; Echinochloa oryzoides, 456 h, read-out: Visual Weed Control (%) Obs, 19 DAA, 8 gae/ha): 10% | pest or weed control at 16 g/ha (ECHOR; Echinochloa oryzoides, 456 h, read-out: Visual Weed Control (%) Obs, 19 DAA, 16 gae/ha): 25% | pest or weed control at 32 g/ha (ECHOR; Echinochloa oryzoides, 456 h, read-out: Visual Weed Control (%) Obs, 19 DAA, 32 gae/ha): 35% | pest or weed control at 4.38 g/ha (ECHOR; Echinochloa oryzoides, 480 h, read-out: Visual Weed Control (%) Obs, 20 DAA, 4.38 gae/ha): 25% | pest or weed control at 8.75 g/ha (ECHOR; Echinochloa oryzoides, 480 h, read-out: Visual Weed Control (%) Obs, 20 DAA, 8.75 gae/ha): 20% | pest or weed control at 17.5 g/ha (ECHOR; Echinochloa oryzoides, 480 h, read-out: Visual Weed Control (%) Obs, 20 DAA, 17.5 gae/ha): 30% | pest or weed control at 35 g/ha (ECHOR; Echinochloa oryzoides, 480 h, read-out: Visual Weed Control (%) Obs, 20 DAA, 35 gae/ha): 73% | pest or weed control at 4.38 g/ha (ECHOR; Echinochloa oryzoides, 504 h, read-out: Visual Weed Control (%) Obs, 21 DAA, 4.38 gae/ha): 15% | pest or weed control at 8.75 g/ha (ECHOR; Echinochloa oryzoides, 504 h, read-out: Visual Weed Control (%) Obs, 21 DAA, 8.75 gae/ha): 15% | pest or weed control at 17.5 g/ha (ECHOR; Echinochloa oryzoides, 504 h, read-out: Visual Weed Control (%) Obs, 21 DAA, 17.5 gae/ha): 20% | pest or weed control at 8.75 g/ha (ECHOR; Echinochloa oryzoides, 528 h, read-out: Visual Weed Control (%) Obs, 22 DAA, 8.75 gae/ha): 35% | pest or weed control at 17.5 g/ha (ECHOR; Echinochloa oryzoides, 528 h, read-out: Visual Weed Control (%) Obs, 22 DAA, 17.5 gae/ha): 30% | pest or weed control at 8.75 g/ha (ECHOR; Echinochloa oryzoides, 600 h, read-out: Visual Weed Control (%) Obs, 25 DAA, 8.75 gae/ha): 85% | pest or weed control at 17.5 g/ha (ECHOR; Echinochloa oryzoides, 600 h, read-out: Visual Weed Control (%) Obs, 25 DAA, 17.5 gae/ha): 90% | Visual Weed Control (%) - 21 DAA CYPIR Obs (CYPIR; 4.38 gae/ha): 75% | Visual Weed Control (%) - 20 DAA CYPIR Obs (CYPIR; 8.75 gae/ha): 35% | Visual Weed Control (%) - 21 DAA CYPIR Obs (CYPIR; 8.75 gae/ha): 85%
